The source of these data is US20050208511A1, “DMBT1 as a clinical marker and uses thereof” (priority 2003, published 2005).

For test [1], the system named is uterus. The test is described as follows: uterine weight in 22-day-old female rats. The test is classed as in vivo, Sprague Dawley rats. The settings on record: oral. As for the experimental part:
(§1) Ten groups of 22-day-old female Sprague Dawley rats (three animals per group) were used to evaluate the effects of estrone, tamoxifen, raloxifene, and ICI 182780 on DMBT1 expression in the uterus. The following groups of rats were treated for three days as follows:
(§2) All treatments were delivered orally in 0.5% Methocel. After treatment the animals were euthanized and the uteri were collected, weighed, frozen in liquid nitrogen, and stored at −20° C. RNA was purified from the frozen uteri using 1.0 mL of TRIzol Reagent (Invitrogen) and a PowerGen 25 tissue homogenizer (Fisher Scientific), according to the manufacturer's instructions.
In rats, uteri increase in size under the proliferative influence of estrogen, and this increase in size can be measured by weighing the tissues.
Administration of the treatments and collection of tissue samples were carried out according to the procedure described in Example 2. RNA was purified, blotted and hybridized to radioactively labeled rat ebnerin cDNA as in described in Example 2.

The test system of test [2] is DMBT1. Nature of the test: Northern analysis of DMBT1 expression in rat uterus. The conditions noted are these: for DMBT1 expression on coadministration with estrone: 70 μg/kg/day estrone + 1 mg/kg/day compound, relative to estrone alone (FIG. 3A); for DMBT1 expression increase in uterine tissue: compound alone, oral, three days, estrone 70 μg/kg/day, others 1 mg/kg/day (FIG. 2). It counts as in vivo, Sprague Dawley rats. As for the experimental part:
as §1, §2
Northern analysis was performed to determine gene expression, including DMBT1 expression, in the uterus of control and treated rats. For gel electrophoresis, samples containing 2 μg of total RNA in a volume of 2 μL of water were added to 6 microliters of formaldehyde loading dye (Ambion) and incubated at 65° C. for 20 minutes. One microliter of a 0.1 mg/ml ethidium bromide solution was then added to each sample. […] The RNA was transferred to a Hybond-N membrane (Amersham) for […] by capillary transfer blotting, using 10×SSC (0.15 M Sodium citrate, pH 7.0, 1.5 M NaCl), after which the membranes were stained with ethidium bromide, destained with water, and photographed for lane loading comparison. The membranes were then air-dried and kept at room temperature until hybridization.
A glycerol stock of a bacterial clone carrying a plasmid (pINCY) containing the rat ebnerin (DMBT1) gene was obtained from Incyte Genomics (ID#: 0000101155000011). […] One colony was selected and used to inoculate 200 mL of Lennox L Broth (Sigma)+50 μg/mL ampicillin (Sigma). The liquid culture was grown overnight at 37° C. and the bacteria were collected by centrifugation. Purification of plasmid DNA was carried out using a QIAfilter plasmid maxi kit (QIAgen) according to the manufacturer's instructions.
Purified pINCY/DMBT1 was treated with the restriction enzymes EcoRI and NotI (Promega) for the preparation and isolation of a 1,174 bp DNA fragment containing the ebnerin probe (DMBT1). The products of the restriction enzyme reaction were separated by electrophoresis on a 1× TAE, 1% SeaKem Gold Agarose Reliant gel, and the band corresponding to the 1.174 kb DNA ebnerin clone was excised. The ebnerin DNA probe was purified from the gel slice using a QIAquick Gel Extraction Kit (QIAgen) according to the manufacturer's instructions. Bound DNA was eluted from the QIAgen column with 50 μL of elution buffer. The ebnerin DNA probe in the eluate was quantified by comparison to a DNA standard by gel electrophoresis. The ebnerin DNA probe was then diluted to a final concentration of 25 ng/μL.
Random-primed probe was made from 25 ng of the purified ebnerin DNA using a DECAprime II kit (Ambion) and Redivue α-^32P dATP (10 mCi/mL) (Amersham) according to the manufacturer's instructions, with the exception that the reaction was incubated for 30 minutes at 37° C. After adding EDTA to stop the reaction, the labeled probe was purified using a QIAquick Nucleotide Removal Kit (QIAgen) according to the manufacturer's instructions, with the final volume of eluted probe being 50 μL. Two microliters were counted in a scintillation counter to ensure optimal radionuclide incorporation (>2×10^6 cpm/μL).
The blot membrane as described in section A was wet in 2×SSC buffer (Sigma) for 15 minutes, then pre-hybridized in 10 mL RapidHyb (Amersham) at 65° C. for 20 minutes. The probe was boiled for 10 minutes, and 25 μL was added to 10 mL of RapidHyb, pre-warmed to 65° C. The blot membrane was added to the diluted probe solution and incubated, with rotation, in a hybridization oven for approximately 10 hours.
The membrane was removed from the probe-containing solution and rinsed twice with 2×SSPE +0.5% SDS+0.5% pyrophosphate at room temperature, and then washed once, with gentle agitation, for 30 minutes at room temperature in the same solution.

Test [3] has as its system DMBT1. The test is described as follows: quantitative RT-PCR of DMBT1 in uterus of ovariectomized rats. It counts as in vivo, Wistar rats. The conditions noted are these: OVX rats, co-treatment with ethinyl estradiol (FIG. 3B). As for the experimental part: Six weeks old ovariectomized Wistar rats (Charles River, Wilmington, Mass.) were dosed for either one day or six weeks with vehicle or test compounds. All treatments were delivered orally, once daily, in 0.5% methylcellulose or sesame oil. After treatment, the uteri were removed, total RNA was purified from the tissues using TRIzol reagent (Invitrogen, Carlsbad, Calif.) as directed by the manufacturer.
Quantitative reverse transcription-polymerase chain reactions (RT-PCR) of DMBT1 from rat RNA samples were carried out using a One-Step RT-PCR Master Mix Kit (Applied Biosystems, Foster City, Calif.) and an ABI Prism 7000 Sequence Detection System (Applied Biosystems), as described by the manufacturer. Commercially available primers and FAM-labeled MGB probes for human and rat DMBT1 (catalog numbers Hs00244827_ml and Rn00575705_ml, respectively) were obtained from Applied Biosystems (Foster City, Calif.). Messenger RNA levels were normalized against 18S ribosomal RNA levels determined using primers and a VIC- and TAMRA-labeled probe from the same vendor.

Test [4] relates to endometrium. The test is described as follows: average endometrial thickness in treated monkeys. The conditions noted are these: 19 days. It counts as in vivo, cynomolgus monkeys (Macaca fascicularis). The source says:
(§3) Adult female cynomolgus monkeys (Macaca fascicularis) were obtained from Covance Research Products. Following one complete menstrual cycle and in the follicular phase of the subsequent menstrual cycle, the animals were ovariectomized by a mid-ventral laparotomy. Ovariectomized (OVX) animals were subject to estrogen treatment after the fourth week following ovariectomy.
Animals and treatment were the same as Example 1 with the following exceptions. To study the effect of PRMs on the endometrium and gene expression, groups of three ovariectomized (OVX) monkeys were given an estrogen implant (E2), plus daily oral doses of the following PRMs for 19 days: mifepristone at 10 mg/kg/d; 17N11-DE (17β-N-substituted-11β-dimethylaminophenyl-estra-4,9-dien-3-one) 1.0, 3.0, or 10 mg/kg/d; 17N11-PE (17β-N-substituted-11β-piperidinylphenyl-estra-4,9-dien-3-one) at 1.0, 3.0, or 10 mg/kg/d. A placebo (0.5% methylcellulose) was administered as a control. 17N11-DE and 17N11-PE are two PRMs that have been described in PCT Publication No. WO 99/62928. Tissue samples were taken from endometria and myometria for histological analysis.

The subject of test [5] is monkey endometrium. Nature of the test: DNA microarray gene expression profile (regulated gene identifiers) in endometrium of ovariectomized monkeys. The test is classed as in vivo, cynomolgus monkeys (Macaca fascicularis). The conditions noted are these: Ovx/E2 vs Ovx/Placebo.
Text: as §3
(§4) Following this period, the OVX monkeys were euthanized and tissue biopsies were taken from endometria of the monkeys treated with estrogen and the placebo. (Details of the endometrial features in OVX monkeys and OVX+estrogen-treated monkeys is described in Example 4.) The biopsies were placed in sterile containers, snap frozen immediately in liquid nitrogen, and stored at −80° C. until processed. Total RNA was prepared from each endometrial tissue biopsy, as described below.
Total RNA was prepared from endometrial tissue biopsies (approximately 50 mg each) using RNAzol™ (Tel-Test, Friendswood, Tex.), as follows. Two milliliters of RNAzol™ were used per 100 mg of tissue. Tissues were homogenized for 2 to 3 minutes using a Tissue Tearor homogenizer (Model No. 985-370; BioSpec Products, Bartlesville, Okla.), then transferred to a glass mortar bowl. The tissues were ground with at least 10 strokes of the pestle until a clear suspension was obtained. […]

Test [6] relates to luminal epithelium. Nature of the test: luminal epithelium thickening in rat uterus sections. The test is classed as in vivo, Wistar rats. The conditions noted are these: OVX rats dosed six weeks, compared to sham and ovariectomized control; estrogen = ethinyl estradiol. As to the method:
Mature, six week-old ovariectomized or sham-operated Wistar rats (Charles River) were dosed with ethinyl estradiol, tamoxifen or raloxifene for six weeks. Uteri were removed, sectioned for immunohistochemical analysis for DMBT1 expression using a polyclonal goat antibody against the human protein.
Tissues were trimmed and processed for paraffin embedding according to conventional methods. Five-micron sections were cut, mounted onto SuperFrost Plus+(Fisher Scientific, Pittsburgh, Pa.) microscopic slides and dried overnight. The protocols for routine single immunohistochemistry (IHC) have been described previously (D'Andrea et al., 2001, Biotechnic Histochem. 76:97-106). Briefly, tissue sections on microscopic slides were dewaxed and re-hydrated. Slides were microwaved for 5 min in Target buffer (Dako, Carpenturia, Calif.), cooled, placed in phosphate-buffered saline (PBS, pH 7.4) and treated with 3% (v/v) H2O2 for 10 min at room temperature. All incubations (30 min each) and washes were performed at room temperature. Normal rabbit blocking serum (Vector Labs, Burlingame, Calif.) was placed on all slides for 10 min. After a brief rinse in PBS, sections were treated with goat polyclonal DMBT1 primary antibody (1:25, Hypromatrix, Worcester, Mass.). Slides were then washed in PBS and treated with rabbit anti-goat biotinylated secondary antibodies (Vector Labs). After washing in PBS, the avidin-biotin-horseradish peroxidase complex reagent (HRP, Vector Labs) was added. All slides were washed and treated with 3,3′-diaminobenzidine (DAB, Biomeda, Foster City, Calif.) two times for 5 min each, rinsed in distilled water, and counterstained with hematoxylin.

The subject of test [7] is DMBT1. Nature of the test: DNA microarray analysis of DMBT1 expression in endometrium of ovariectomized monkeys. It counts as in vivo, cynomolgus monkeys (Macaca fascicularis). The settings on record: OVX monkeys, estrogen implant 19 days vs Ovx/Placebo, endometrium, microarray.
Text: as §3, §4
Total RNA was prepared from endometrial tissue biopsies (approximately 50 mg each) using RNAzol™ (Tel-Test, Friendswood, Tex.), as follows. Two milliliters of RNAzol™ were used per 100 mg of tissue. Tissues were homogenized for 2 to 3 minutes using a Tissue Tearor homogenizer (Model No. 985-370; BioSpec Products, Bartlesville, Okla.), then transferred to a glass mortar bowl. The tissues were ground with at least 10 strokes of the pestle until a clear suspension was obtained. The homogenates were transferred to a polypropylene conical flask, to which 0.1 mL of chloroform per 1 mL of homogenate was added. The mixtures were then shaken vigorously for 1 minute. The suspensions were then transferred to a 2 mL microcentrifuge tube and centrifuged for 15. minutes at 12000 g and at 4° C. in a fixed angle rotor using a Biofuge 17R centrifuge (Baxter, Deerfield, Ill.). The aqueous phase was carefully transferred to a new microcentrifuge tube. An equal volume of isopropanol was added to the aqueous phase, mixed gently, and incubated at 4° C. for 15 minutes. RNA was pelleted by centrifuging the mixture for 15 minutes at 12000 g and at 4° C. as described above. The supernatant was removed and the pellet washed with 75% (v/v) ethanol (Pharmco Products, Brookfield, Conn.), followed by centrifugation at 7500 g for 8 minutes at 4° C. The supernatant was removed, and then the RNA pellet was air-dried briefly and resuspended in RNase-free water (Promega, Madison, Wis.). The samples were then treated with Amplification Grade RNase-free DNase I to remove any residual DNA (Invitrogen, Carlsbad, Calif.). Specifically, twenty micrograms of RNA were treated in a reaction volume of 0.1 mL, containing 1× DNase I reaction buffer and 10 units of DNase I. The reaction continued at room temperature for 15 minutes. […]

Where [8] appears, read: estrogen-stimulated endometrium (C).

Regarding `C[C@]12CC[C@@H]3c4ccc(O)cc4C[C@@H](CCCCCCCCC[S+]([O-])CCCC(F)(F)C(F)(F)F)[C@H]3[C@@H]1CC[C@@H]2O` (some centres unmarked) [ICI 182780], the “uterine weight on co-treatment with estrone” value in test [1] (70 μg/kg/day estrone + 1 mg/kg/day compound, three days (FIG. 1)) was “approximately between that of estrone (E) and ICI 182780 (1) treatments alone”. The uterine weight entry in test [1] (compound alone, three days, estrone 70 μg/kg/day, others 1 mg/kg/day, vs control (FIG. 1)) is given as “significant decrease in uterine weight”. In addition, the “DMBT1 expression on coadministration with estrone” value in test [2] (1 mg/kg/day) was “moderately lowered”; in test [2] (listed as ICI 182,780, 1 mg/kg/day), “inhibited”. Moreover, in test [2], the “DMBT1 expression increase in uterine tissue” value was “undetectable levels”.
Take `C[C@]12CC[C@@H]3c4ccc(O)cc4CC[C@H]3[C@@H]1CCC2=O` [estrone]: in test [2], the “DMBT1 expression increase in uterine tissue” value was about 5 fold.
For `CC(=O)O[C@]1(C(C)=O)CC[C@H]2[C@@H]3C[C@H](C)C4=CC(=O)CC[C@]4(C)[C@H]3CC[C@@]21C` [medroxyprogesterone acetate], the “effect on ethinyl estradiol-induced increase in DMBT1 mRNA levels” value in test [3] is recorded as “blocked the increase in mRNA levels in a dose-dependent manner”.
For estrogen, the “Endometrial Thickness (mm)” value in test [4] (Ovx/E2/Vehicle) was found to be 3.03 mm. Besides, in test [4] (setting [8]), the “endometrial thickness relative to chemically castrated endometrium (B)” value is recorded as 2.5 times and the “endometrial thickness relative to ovariectomized control (A)” value was “seven to eight times thicker”. In test [5], the “PR gene regulation by estrogen” value is reported as “threefold up-regulation” and the “insulin-like growth factor binding protein 3 gene regulation by estrogen” value is on record as “tenfold down-regulation”. For the same molecule, the “thickening of the luminal epithelium” value in test [6] is “expected thickening of the luminal epithelium”. Besides, the “expression of DMBT1 up-regulated” value in test [7] was found to be 37 fold.
